Test results published in ChEMBL document CHEMBL3580623, “Minor Structural Change to Tertiary Sulfonamide RORc Ligands Led to Opposite Mechanisms of Action” (ACS Med Chem Lett, 2015).

Tests used:
[1] = target: T1, Nuclear receptor ROR-gamma (Homo sapiens, UniProt P51449)
T1 sequence (P51449 whole entry): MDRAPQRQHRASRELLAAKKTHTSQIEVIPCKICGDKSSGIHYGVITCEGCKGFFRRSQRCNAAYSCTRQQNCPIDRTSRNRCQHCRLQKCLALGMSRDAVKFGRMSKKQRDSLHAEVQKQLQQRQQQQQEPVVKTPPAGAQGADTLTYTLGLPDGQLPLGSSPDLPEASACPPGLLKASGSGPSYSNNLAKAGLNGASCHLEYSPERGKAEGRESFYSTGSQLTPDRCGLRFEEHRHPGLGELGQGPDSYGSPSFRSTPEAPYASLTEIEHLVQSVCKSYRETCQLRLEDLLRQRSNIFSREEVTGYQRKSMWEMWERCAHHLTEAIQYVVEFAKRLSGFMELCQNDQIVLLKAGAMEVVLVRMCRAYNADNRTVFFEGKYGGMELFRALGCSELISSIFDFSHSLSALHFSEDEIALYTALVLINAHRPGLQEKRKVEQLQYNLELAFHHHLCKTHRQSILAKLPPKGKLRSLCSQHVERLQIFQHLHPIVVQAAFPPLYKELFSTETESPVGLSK
Description: Displacement of [3H2]-25-hydroxycholesterol from N-terminal 6xHis-tagged human RORc ligand binding domain (241 to 486) expressed in bacterial expression system after 3 hrs by scintillation counting analysis

[2] = target: T1, Nuclear receptor ROR-gamma; format: functional
[3] = test system: PBMC; assay: Effect on IFNgamma production in human PBMC cells after 48 hrs by sandwich ELISA method; format: functional, cell-based
[4] = target: T1, Nuclear receptor ROR-gamma; format: functional; remark: listed apart in the source
[5] = test system: PBMC; assay: Cytotoxicity against human PBMC assessed as effect on cell physiology after 48 hrs by CellTiter-Glo assay; format: cell-based
[6] = test system: PBMC; assay: Induction of IL17 production in human PBMC cells after 48 hrs by sandwich ELISA method relative to control; format: functional
[7] = test system: PBMC; assay: Induction of IL17 production in human PBMC cells after 48 hrs by sandwich ELISA method; format: functional, cell-based
[8] = test system: PBMC; assay: Inhibition of IL17 production in human PBMC cells after 48 hrs by sandwich ELISA method relative to control; format: functional
[9] = test system: PBMC; assay: Inhibition of IL17 production in human PBMC cells after 48 hrs by sandwich ELISA method; format: functional, cell-based
[10] = target: T2, Nuclear receptor subfamily 1 group I member 2 (Homo sapiens, UniProt O75469); assay: Agonist activity at GAL4-fused human PXR expressed in HEK293T cells assessed as activation of basal transcriptional activity after 20 hrs by dual-glo luciferase reporter gene assay; format: cell-based; conditions: hek-293t
T2 sequence (O75469 whole entry): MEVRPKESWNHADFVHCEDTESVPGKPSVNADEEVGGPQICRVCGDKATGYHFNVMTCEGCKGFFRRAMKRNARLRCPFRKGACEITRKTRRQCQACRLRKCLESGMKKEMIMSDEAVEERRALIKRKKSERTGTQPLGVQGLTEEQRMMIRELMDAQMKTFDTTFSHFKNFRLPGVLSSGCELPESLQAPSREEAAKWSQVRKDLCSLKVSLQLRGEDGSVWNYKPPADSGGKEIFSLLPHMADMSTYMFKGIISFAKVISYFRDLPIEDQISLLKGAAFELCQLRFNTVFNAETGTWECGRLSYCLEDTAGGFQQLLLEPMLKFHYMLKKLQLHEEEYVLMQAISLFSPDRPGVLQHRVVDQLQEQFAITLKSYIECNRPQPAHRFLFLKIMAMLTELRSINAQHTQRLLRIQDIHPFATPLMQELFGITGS

[11] = target: T3, Oxysterols receptor LXR-alpha (Homo sapiens, UniProt Q13133); assay: Antagonist activity at GAL4-fused human LXRalpha expressed in HEK293T cells assessed as inhibition of agonist-induced transcriptional activity after 20 hrs by dual-glo luciferase reporter gene assay
T3 sequence (Q13133 whole entry): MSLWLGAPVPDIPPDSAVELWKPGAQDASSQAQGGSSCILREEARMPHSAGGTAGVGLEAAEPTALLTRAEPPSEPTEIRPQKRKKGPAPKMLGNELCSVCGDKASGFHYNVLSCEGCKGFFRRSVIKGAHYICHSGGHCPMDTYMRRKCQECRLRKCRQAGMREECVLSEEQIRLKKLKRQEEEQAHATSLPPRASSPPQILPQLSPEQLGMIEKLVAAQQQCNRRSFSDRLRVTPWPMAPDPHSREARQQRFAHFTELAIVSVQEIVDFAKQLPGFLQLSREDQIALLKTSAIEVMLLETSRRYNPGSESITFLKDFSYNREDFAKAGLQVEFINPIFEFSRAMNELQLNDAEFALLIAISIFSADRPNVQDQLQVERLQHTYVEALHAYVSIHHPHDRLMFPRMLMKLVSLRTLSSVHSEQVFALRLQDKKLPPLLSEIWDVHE

[12] = target: T1, Nuclear receptor ROR-gamma; assay: Inverse agonist activity at GAL4-fused human RORc expressed in HEK293T cells assessed as suppression of basal transcriptional activity after 20 hrs by dual-glo luciferase reporter gene assay; format: functional, cell-based, HEK-293T
[13] = target: T4, Nuclear receptor ROR-beta (Homo sapiens, UniProt Q92753); assay: Inverse agonist activity at GAL4-fused human RORb expressed in HEK293T cells assessed as suppression of basal transcriptional activity after 20 hrs by dual-glo luciferase reporter gene assay; format: cell-based, HEK-293T
T4 sequence (Q92753 whole entry): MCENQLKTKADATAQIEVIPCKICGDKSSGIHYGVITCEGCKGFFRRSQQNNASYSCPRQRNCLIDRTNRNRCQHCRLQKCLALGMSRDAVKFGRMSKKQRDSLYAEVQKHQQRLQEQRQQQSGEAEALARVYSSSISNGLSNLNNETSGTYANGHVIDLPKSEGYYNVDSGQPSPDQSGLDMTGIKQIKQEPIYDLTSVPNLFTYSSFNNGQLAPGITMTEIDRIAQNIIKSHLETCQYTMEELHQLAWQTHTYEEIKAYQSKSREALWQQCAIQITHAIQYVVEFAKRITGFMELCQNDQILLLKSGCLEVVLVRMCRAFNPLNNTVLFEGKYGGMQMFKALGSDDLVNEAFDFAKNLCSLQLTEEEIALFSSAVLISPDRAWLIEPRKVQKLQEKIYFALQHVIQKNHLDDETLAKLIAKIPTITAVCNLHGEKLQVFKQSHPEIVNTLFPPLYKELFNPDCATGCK

[14] = target: T5, Bile acid receptor (Homo sapiens, UniProt Q96RI1); assay: Antagonist activity at GAL4-fused human FXR expressed in HEK293T cells assessed as inhibition of agonist-induced transcriptional activity after 20 hrs by dual-glo luciferase reporter gene assay
T5 sequence (Q96RI1 whole entry): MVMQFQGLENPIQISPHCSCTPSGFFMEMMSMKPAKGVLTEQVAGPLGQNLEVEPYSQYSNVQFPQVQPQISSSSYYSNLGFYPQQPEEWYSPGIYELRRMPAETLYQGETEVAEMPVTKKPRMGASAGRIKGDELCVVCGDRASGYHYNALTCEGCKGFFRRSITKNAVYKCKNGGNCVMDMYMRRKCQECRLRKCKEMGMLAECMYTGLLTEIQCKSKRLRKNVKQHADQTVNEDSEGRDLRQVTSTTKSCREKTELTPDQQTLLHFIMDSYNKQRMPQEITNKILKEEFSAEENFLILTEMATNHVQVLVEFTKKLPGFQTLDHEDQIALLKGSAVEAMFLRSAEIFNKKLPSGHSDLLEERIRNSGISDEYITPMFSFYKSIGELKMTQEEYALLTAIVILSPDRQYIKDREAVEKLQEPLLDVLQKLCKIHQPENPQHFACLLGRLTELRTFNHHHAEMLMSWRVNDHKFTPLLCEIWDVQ

Row | Structure (SMILES) | EC50 [2] [nM] | EC50 [4] [nM] | other results
1 | CC(=O)N1CCN(c2ccc(CN(C3CCC3)S(=O)(=O)Cc3ccc(Cl)cc3)c(F)c2)CC1 | 33 | – | IC50 [1]: 37 nM
2 | CC(=O)N1CCN(c2ccc(CN(C3CCC3)S(=O)(=O)Cc3ccccc3)c(F)c2)CC1 | 11 | – | EC50 [3]: > 10000 nM; EC50 [5]: > 20000 nM; Efficacy [8]: -79%; EC50 [9]: 350 nM
3 | CC(=O)N1CCN(c2ccc(CN(C3CCC3)S(=O)(=O)CCc3ccccc3)c(F)c2)CC1 | 310 | – | –
4 | CC(=O)N1CCN(c2ccc(CN(C3CCC3)S(=O)(=O)Cc3ccccc3F)c(F)c2)CC1 | 3 | – | Activity [10]: Not Active; EC50 [11]: 9200 nM; EC50 [12]: 15 nM; EC50 [13]: 2700 nM; EC50 [3]: > 10000 nM; EC50 [5]: > 20000 nM; Efficacy [8]: -72%; EC50 [14]: 6100 nM; EC50 [9]: 320 nM
5 | CC(=O)N1CCN(c2ccc(CN(C3CCC3)S(=O)(=O)Cc3cccc(F)c3)c(F)c2)CC1 | 10 | – | –
6 | CC(=O)N1CCN(c2ccc(CN(C3CCC3)S(=O)(=O)Cc3ccccc3Cl)c(F)c2)CC1 | 4 | – | –
7 | CC(=O)N1CCN(c2ccc(CN(C3CCC3)S(=O)(=O)Cc3cccc(Cl)c3)c(F)c2)CC1 | 9 | – | –
8 | CC(=O)N1CCN(c2ccc(CN(C3CCC3)S(=O)(=O)c3cc(Cl)cc(Cl)c3)c(F)c2)CC1 | – | 6 | –
9 | CC(=O)N1CCN(c2ccc(CN(C3CCC3)S(=O)(=O)Cc3cc(Cl)cc(Cl)c3)c(F)c2)CC1 | 40 | – | –
10 | CC(=O)N1CCN(c2ccc(CN(C3CCC3)S(=O)(=O)c3ccc(Cl)cc3Cl)c(F)c2)CC1 | 220 | – | –

The next lines start with results.

Row | EC50 [2] [nM] | EC50 [4] [nM] | Structure (SMILES) | other results
11 | – | 69 | CC(=O)N1CCN(c2ccc(CN(C3CCC3)S(=O)(=O)c3ccccc3)c(F)c2)CC1 | EC50 [3]: > 10000 nM; EC50 [5]: > 20000 nM; Efficacy [6]: 77%; EC50 [7]: 780 nM
12 | – | 63 | CC(=O)N1CCN(c2ccc(CN(C3CCC3)S(=O)(=O)c3ccccc3F)c(F)c2)CC1 | EC50 [3]: > 10000 nM; EC50 [5]: > 20000 nM; Efficacy [6]: 71%; EC50 [7]: 800 nM
13 | – | 41 | CC(=O)N1CCN(c2ccc(CN(C3CCC3)S(=O)(=O)c3cccc(F)c3)c(F)c2)CC1 | –
14 | > 10000 | – | CC(=O)N1CCN(c2ccc(CN(C3CCC3)S(=O)(=O)c3ccc(F)cc3)c(F)c2)CC1 | –
15 | 7 | – | CC(=O)N1CCN(c2ccc(CN(C3CCC3)S(=O)(=O)Cc3ccc(F)cc3)c(F)c2)CC1 | –
16 | – | 47 | CC(=O)N1CCN(c2ccc(CN(C3CCC3)S(=O)(=O)c3ccccc3Cl)c(F)c2)CC1 | –
17 | – | 50 | CC(=O)N1CCN(c2ccc(CN(C3CCC3)S(=O)(=O)c3cccc(Cl)c3)c(F)c2)CC1 | –
18 | 190 | – | CC(=O)N1CCN(c2ccc(CN(C3CCC3)S(=O)(=O)c3ccc(Cl)cc3)c(F)c2)CC1 | –
19 | – | 14 | CC(=O)N1CCN(c2ccc(CN(C3CCC3)S(=O)(=O)c3cc(F)cc(F)c3)c(F)c2)CC1 | –
20 | – | 26 | COc1cccc(S(=O)(=O)N(Cc2ccc(N3CCN(C(C)=O)CC3)cc2F)C2CCC2)c1 | –
21 | 3300 | – | COc1ccc(S(=O)(=O)N(Cc2ccc(N3CCN(C(C)=O)CC3)cc2F)C2CCC2)cc1 | –
22 | 150 | – | CC(=O)N1CCN(c2ccc(CN(C3CCC3)S(=O)(=O)c3ccc(OC(F)F)cc3)c(F)c2)CC1 | IC50 [1]: 31 nM
23 | 160 | – | CC(=O)N1CCN(c2ccc(CN(C3CCC3)S(=O)(=O)c3ccc(OC(F)(F)F)cc3)c(F)c2)CC1 | –
24 | 300 | – | CC(=O)N1CCN(c2ccc(CN(C3CCC3)S(=O)(=O)c3ccc(C(F)(F)F)cc3)c(F)c2)CC1 | –
25 | 120 | – | CC(=O)N1CCN(c2ccc(CN(C3CCC3)S(=O)(=O)c3ccc(C(C)(C)C)cc3)c(F)c2)CC1 | –
